Columns and labels:
rat liver mitochondria = experiment: Accumulation of Compound 9 in isolated mitochondria (ion selective electrode); assay type: in vitro ADME
Method: Liver mitochondria were prepared from female Wistar rats by homogenisation followed by differential centrifugation in medium containing 250 mM sucrose, 10 mM Tris-HCL (pH 7.4) and 1 mM EGTA (Chappell, J. B. and Hansford, R. G., In: Subcellular components: preparation and fractionation (Ed. Birnie G D), pp. 77-91. Butterworths, London, 1972, which is incorporated herein by reference.)
An ion selective electrode for compound 9 was prepared by standard procedures (Kamo, N., et al., Journal of Membrane Biology, 49, 105-121 (1979) and Davey, G. P., et al., Biochemical Journal, 288, 439-443 (1992), which are incorporated herein by reference), and activated by soaking in 100 μM compound 9 for 1-3 days. The electrodes were then inserted into an air-tight chamber of an oxygen electrode enabling simultaneous measurement of oxygen consumption and compound 9, as shown in FIG. 1.
The rat liver mitochondria (2 mg protein/ml) were suspended in KCl medium (120 mM KCl, 10 mM HEPES, pH 7.2, 1 mM EGTA) with additions of rotenone (5 μg/ml) and nigericin (0.6 nM) in a stirred 3 ml system at 30° C. Compound 9 was titrated in 1 μM increments (from 650 to 730s on FIG. 1) and the response of the electrode measured over 0-5 μM of Compound 9. This response was logarithmic with respect to the concentration of Compound 9.
To energise the mitochondria, the respiratory substrate succinate (5 mM) was added (at 800s on FIG. 1). These conditions are known to generate a mitochondrial membrane potential of about 180 mV (Burns, et al., Arch Biochem Biophys, 332,60-68 (1995); Burns and Murphy, Arch Biochem Biophys, 339, 33-39 (1997), which are incorporated herein by reference).

superoxide = experiment: Standard assay for superoxide dismutase activity (xanthine oxidase/hypoxanthine, acetylated cytochrome c reduction, A550); assay type: biochemical
Method: To see if Compound 9 is catalytically active as a superoxide dismutase mimetic, a standard assay for superoxide dismutase activity was used (Boveris, A., Methods Enzymol., 105, 429-435 (1984), which is incorporated herein by reference).
The incubation conditions were 50 mM KPi, pH 7.5; 1 mM EGTA; 100 μM DTPA (N,N-bis(2-bis[carboxymethyl]amino)ethyl) glycine) at 30° C. to which was added 0.1 unit/ml xanthine oxidase and acetylated cytochrome c (50 μM). After incubation for 2 min, the background rate was measured for 1 min then hypoxanthine (100 μM) was added to initiate superoxide formation (point X in FIG. 2), which provides a continual flux. The rate of superoxide formation is measured by the rate at which the superoxide reduced cytochrome c(III) to cytochrome c(II), which leads to an increase in light absorption at 550 nm (A550). SOD activity causes the superoxide to be converted to hydrogen peroxide thereby decreasing the rate of reduction of cytochrome c (III). In FIG. 2, the initial rate of reduction of cytochrome c (III) can be seen (line A) and on addition of compound 9 (250 nM) this rate of cytochrome c reduction was decreased due to consumption of the superoxide by compound 9 (line B).
The above experiments were repeated using various concentrations of Compound 9 and the native superoxide dismutase (Cu, Zn SOD) in order to compare their activity.

xanthine oxidase = experiment: Control experiments for inhibition of xanthine oxidase; assay type: biochemical
Sequence of xanthine oxidase (P47989 whole entry, species assumed): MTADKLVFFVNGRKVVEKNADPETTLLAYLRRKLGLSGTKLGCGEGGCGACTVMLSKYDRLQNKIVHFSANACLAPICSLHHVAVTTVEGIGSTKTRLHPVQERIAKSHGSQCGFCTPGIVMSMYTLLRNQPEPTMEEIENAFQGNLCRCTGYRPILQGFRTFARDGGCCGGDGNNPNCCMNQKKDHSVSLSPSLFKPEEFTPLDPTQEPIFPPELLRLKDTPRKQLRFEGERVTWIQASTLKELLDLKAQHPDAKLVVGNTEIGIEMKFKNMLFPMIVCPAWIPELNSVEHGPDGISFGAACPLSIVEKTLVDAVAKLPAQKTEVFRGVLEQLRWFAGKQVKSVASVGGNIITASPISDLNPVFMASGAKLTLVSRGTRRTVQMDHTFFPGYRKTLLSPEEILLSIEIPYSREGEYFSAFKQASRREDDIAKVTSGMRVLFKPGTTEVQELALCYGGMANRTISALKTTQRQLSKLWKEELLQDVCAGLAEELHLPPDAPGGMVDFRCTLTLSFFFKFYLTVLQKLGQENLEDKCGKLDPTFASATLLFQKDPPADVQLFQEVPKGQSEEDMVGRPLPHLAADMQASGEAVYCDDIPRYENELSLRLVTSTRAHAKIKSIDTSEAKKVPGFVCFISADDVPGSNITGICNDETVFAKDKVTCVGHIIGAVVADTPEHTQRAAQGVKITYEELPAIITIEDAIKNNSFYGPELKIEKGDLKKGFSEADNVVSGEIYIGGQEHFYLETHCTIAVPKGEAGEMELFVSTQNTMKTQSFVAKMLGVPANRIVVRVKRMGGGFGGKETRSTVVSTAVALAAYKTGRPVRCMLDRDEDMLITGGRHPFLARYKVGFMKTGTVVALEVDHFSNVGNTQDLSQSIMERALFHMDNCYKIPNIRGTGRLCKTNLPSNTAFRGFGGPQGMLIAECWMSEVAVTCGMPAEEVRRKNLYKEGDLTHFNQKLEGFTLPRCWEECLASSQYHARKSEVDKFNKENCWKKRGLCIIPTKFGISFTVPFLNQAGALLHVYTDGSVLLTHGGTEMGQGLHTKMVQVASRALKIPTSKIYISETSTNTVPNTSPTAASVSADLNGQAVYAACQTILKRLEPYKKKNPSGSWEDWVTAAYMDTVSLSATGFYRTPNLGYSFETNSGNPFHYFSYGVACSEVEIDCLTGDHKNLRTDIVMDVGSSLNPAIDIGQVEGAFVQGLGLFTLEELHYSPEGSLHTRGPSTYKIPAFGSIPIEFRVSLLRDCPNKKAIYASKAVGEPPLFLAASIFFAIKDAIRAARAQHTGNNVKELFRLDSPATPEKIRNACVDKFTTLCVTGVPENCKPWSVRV

Question: With `[Cl-].[Cl-].[Cl-].[Mn+2].c1ccc([P+](CCCSc2cc3nc(c2)CNC2CCCCC2NCCNC2CCCCC2NC3)(c2ccccc2)c2ccccc2)cc1` [Compound 9, Manganese(II) dichloro((4R, 9R, 14R, 19R)-24-(3-triphenylphosphoniopropane-1-thio)-3, 10, 13, 20, 26-pentaazatetracyclo[20.3.1.0.^4,9.0^14,19]hexacosa-1 (26),-22(23),24-triene) chloride] as the compound, how does the “time for reversal of accumulation on addition of the uncoupler FCCP” value (rat liver mitochondria; FCCP 332 nM added to dissipate the membrane potential) read?
Answer: < 10 s

Question: And the “concentration of the compound within mitochondria” value (rat liver mitochondria; energised (succinate 5 mM) rat liver mitochondria 2 mg protein/ml, KCl medium pH 7.2, 30° C., 0-5 μM compound)?
Answer: about 1.25 nmol/mg protein

Question: And the “accumulation by energised mitochondria” value (rat liver mitochondria; energised rat liver mitochondria, membrane potential about 180 mV)?
Answer: ~500 fold

Question: What about the “concentration of compound outside the mitochondria after energising with succinate” value (rat liver mitochondria; succinate 5 mM added, FIG. 1) of the same compound?
Answer: falls rapidly

Question: What about the “rate of cytochrome c reduction” value (superoxide; compound 9 at 250 nM, FIG. 2 line B versus control line A) of the same compound?
Answer: decreased

Question: And the “SOD activity of 1 nmol compound expressed as activity of the native enzyme CuZnSOD” value (superoxide; per 1 nmol Compound 9, various concentrations, FIG. 3)?
Answer: about 1 unit

Question: What about the “inhibition of the activity of xanthine oxidase” value (xanthine oxidase) of the same compound?
Answer: does not inhibit
